Source: PubChem BioAssay (NCI)
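Values below derive from 48-hour exposures of cells grown in 96-well plates, with endpoints linearly interpolated between the two concentrations bracketing the appropriate inhibition level. TGI: total growth inhibition.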

Columns and labels:
Experiment in all cases: growth of human tumour cells (NCI), 48 h
[1] = system: COLO 205 colon
[2] = system: SF-295 CNS
[3] = system: SNB-78 CNS
[4] = system: HCT-116 colon
[5] = system: HCT-15 colon
[6] = system: HCC-2998 colon
[7] = system: OVCAR-5 ovarian
[8] = system: LOX IMVI melanoma
[9] = system: NCI-H522 lung
[10] = system: UO-31 renal
[11] = system: CAKI-1 renal
[12] = system: ACHN renal
[13] = system: SN12C renal
[14] = system: SR leukemia
[15] = system: HL-60(TB) leukemia
[16] = system: U251 CNS
[17] = system: A549 NSCLC
[18] = system: RXF-631 renal
[19] = system: LXFL 529 NSCLC
[20] = system: UACC-257 melanoma
[21] = system: SK-OV-3 ovarian
[22] = system: NCI-H226 lung
[23] = system: HT29 colon
[24] = system: CCRF-CEM leukemia
[25] = system: SF-539 CNS
[26] = system: M14 melanoma
[27] = system: UACC-62 melanoma
[28] = system: RPMI-8226 leukemia
[29] = system: TK-10 renal
[30] = system: OVCAR-8 ovarian
[31] = system: NCI-H460 lung
[32] = system: NCI-H23 lung
[33] = system: MALME-3M melanoma
[34] = system: 786-0 renal
[35] = system: KM12 colon
[36] = system: HOP-62 NSCLC
[37] = system: MOLT-4 leukemia
[38] = system: HOP-92 NSCLC
[39] = system: SNB-75 CNS
[40] = system: M19-MEL melanoma
[41] = system: SF-268 CNS
[42] = system: HOP-18 NSCLC
[43] = system: EKVX NSCLC
[44] = system: SNB-19 CNS
[45] = system: A498 renal
[46] = system: RXF 393 renal
[47] = system: SK-MEL-28 melanoma
[48] = system: KM20L2 colon
[49] = system: K-562 leukemia
[50] = system: OVCAR-4 ovarian
[51] = system: IGROV1 ovarian
[52] = system: SW-620 colon
[53] = system: SK-MEL-5 melanoma
[54] = system: DLD-1 colon
[55] = system: OVCAR-3 ovarian
[56] = system: DMS 114 small cell lung
[57] = system: SK-MEL-2 melanoma
[58] = system: DMS 273 small cell lung

Which TGI [1] does the source give for `CCOC(=O)C1=NC(c2ccccc2)(c2ccccc2)OC1=C(Cl)Cl` here?
The TGI was > 100 µM.

And the TGI [2]?
The TGI was > 100 µM.

And the TGI [3]?
The TGI was > 100 µM.

And the TGI [4]?
The TGI was > 100 µM.

What about the TGI [5] of the same compound?
Its TGI is > 100 µM.

What about the TGI [6] of the same compound?
Its TGI is 57.4 µM.

And the TGI [7]?
Its TGI is > 100 µM.

What about the TGI [8] of the same compound?
The TGI was > 100 µM.

And the TGI [9]?
The TGI was > 100 µM.

What about the TGI [10] of the same compound?
Its TGI is > 100 µM.

What about the TGI [11] of the same compound?
Its TGI is > 100 µM.

What about the TGI [12] of the same compound?
Its TGI is > 100 µM.

And the TGI [13]?
Its TGI is > 100 µM.

What about the TGI [14] of the same compound?
The TGI was > 100 µM.

And the TGI [15]?
The TGI was 34.8 µM.

And the TGI [16]?
The TGI was > 100 µM.

And the TGI [17]?
Its TGI is > 100 µM.

And the TGI [18]?
The TGI was > 100 µM.

And the TGI [19]?
The TGI was > 100 µM.

And the TGI [20]?
Its TGI is > 100 µM.

What about the TGI [21] of the same compound?
Its TGI is > 100 µM.

What about the TGI [22] of the same compound?
The TGI was > 100 µM.

And the TGI [23]?
The TGI was > 100 µM.

What about the TGI [24] of the same compound?
The TGI was > 100 µM.

What about the TGI [25] of the same compound?
Its TGI is > 100 µM.

And the TGI [26]?
Its TGI is > 100 µM.

What about the TGI [27] of the same compound?
The TGI was > 100 µM.

And the TGI [28]?
The TGI was > 100 µM.

What about the TGI [29] of the same compound?
The TGI was > 100 µM.

And the TGI [30]?
Its TGI is > 100 µM.

And the TGI [31]?
Its TGI is > 100 µM.

What about the TGI [32] of the same compound?
Its TGI is > 100 µM.

And the TGI [33]?
Its TGI is > 100 µM.

What about the TGI [34] of the same compound?
The TGI was > 100 µM.

And the TGI [35]?
Its TGI is > 100 µM.

And the TGI [36]?
The TGI was > 100 µM.

What about the TGI [37] of the same compound?
The TGI was > 100 µM.

What about the TGI [38] of the same compound?
Its TGI is > 100 µM.

And the TGI [39]?
Its TGI is > 100 µM.

And the TGI [40]?
Its TGI is > 100 µM.

And the TGI [41]?
Its TGI is > 100 µM.

What about the TGI [42] of the same compound?
Its TGI is > 100 µM.

And the TGI [43]?
Its TGI is > 100 µM.

What about the TGI [44] of the same compound?
Its TGI is > 100 µM.

And the TGI [45]?
The TGI was > 100 µM.

What about the TGI [46] of the same compound?
Its TGI is 12.5 µM.

What about the TGI [47] of the same compound?
The TGI was > 100 µM.

What about the TGI [48] of the same compound?
Its TGI is > 100 µM.

And the TGI [49]?
Its TGI is > 100 µM.

What about the TGI [50] of the same compound?
The TGI was > 100 µM.

And the TGI [51]?
The TGI was > 100 µM.

And the TGI [52]?
Its TGI is > 100 µM.

And the TGI [53]?
Its TGI is > 100 µM.

And the TGI [54]?
Its TGI is > 100 µM.

And the TGI [55]?
The TGI was > 100 µM.

Which TGI [1] does the source give for `CC1=C(/C=C/C(C)=C/C=C/C(C)=C/C=C/C=C(C)/C=C/C=C(C)/C=C/C=C(C)/C=C/C=C(\C)C(=O)O)C(C)(C)CCC1` here?
Its TGI is > 100 µM.

And the TGI [2]?
Its TGI is > 100 µM.

And the TGI [3]?
Its TGI is > 100 µM.

And the TGI [4]?
Its TGI is > 100 µM.

And the TGI [5]?
The TGI was > 100 µM.

And the TGI [7]?
Its TGI is > 100 µM.

And the TGI [9]?
Its TGI is > 100 µM.

What about the TGI [10] of the same compound?
The TGI was > 100 µM.

What about the TGI [11] of the same compound?
Its TGI is > 100 µM.

What about the TGI [12] of the same compound?
The TGI was > 100 µM.

What about the TGI [13] of the same compound?
Its TGI is > 100 µM.

And the TGI [16]?
Its TGI is > 100 µM.

What about the TGI [56] of the same compound?
Its TGI is > 100 µM.

What about the TGI [17] of the same compound?
Its TGI is > 100 µM.

And the TGI [18]?
The TGI was > 100 µM.

And the TGI [19]?
The TGI was > 100 µM.

And the TGI [20]?
The TGI was > 100 µM.

And the TGI [21]?
Its TGI is > 100 µM.

And the TGI [22]?
The TGI was > 100 µM.

What about the TGI [23] of the same compound?
Its TGI is > 100 µM.

What about the TGI [57] of the same compound?
The TGI was > 100 µM.

What about the TGI [24] of the same compound?
The TGI was > 100 µM.

And the TGI [25]?
Its TGI is > 100 µM.

What about the TGI [26] of the same compound?
Its TGI is > 100 µM.

And the TGI [27]?
Its TGI is > 100 µM.

What about the TGI [28] of the same compound?
Its TGI is > 100 µM.

What about the TGI [29] of the same compound?
The TGI was > 100 µM.

What about the TGI [30] of the same compound?
The TGI was > 100 µM.

What about the TGI [31] of the same compound?
The TGI was > 100 µM.

And the TGI [32]?
Its TGI is > 100 µM.

What about the TGI [33] of the same compound?
Its TGI is > 100 µM.

And the TGI [34]?
Its TGI is > 100 µM.

What about the TGI [35] of the same compound?
Its TGI is > 100 µM.

What about the TGI [58] of the same compound?
Its TGI is > 100 µM.

What about the TGI [36] of the same compound?
The TGI was > 100 µM.

What about the TGI [37] of the same compound?
The TGI was > 100 µM.

What about the TGI [39] of the same compound?
The TGI was > 100 µM.

What about the TGI [41] of the same compound?
Its TGI is > 100 µM.

And the TGI [42]?
The TGI was > 100 µM.

What about the TGI [43] of the same compound?
The TGI was > 100 µM.

What about the TGI [44] of the same compound?
The TGI was > 100 µM.

And the TGI [45]?
The TGI was > 100 µM.

What about the TGI [46] of the same compound?
Its TGI is > 100 µM.

What about the TGI [47] of the same compound?
The TGI was > 100 µM.

What about the TGI [48] of the same compound?
Its TGI is > 100 µM.

And the TGI [49]?
The TGI was > 100 µM.

What about the TGI [50] of the same compound?
The TGI was > 100 µM.

What about the TGI [51] of the same compound?
The TGI was > 100 µM.

And the TGI [52]?
The TGI was > 100 µM.

What about the TGI [53] of the same compound?
The TGI was > 100 µM.

What about the TGI [54] of the same compound?
The TGI was > 100 µM.

And the TGI [55]?
Its TGI is > 100 µM.
